Consider ten compounds from patent US20090137681A1, “Sirtuin Inhibiting Compounds” (priority 2005, published 2009).

The structures appear in SMILES notation. “Also recorded” adds a separate entry of the source.

For one data set, the target named is T1, human SIRT1 (hSIRT1) (Homo sapiens, UniProt Q96EB6).
T1 construct: His; made in house
T1 sequence (Q96EB6 1-747): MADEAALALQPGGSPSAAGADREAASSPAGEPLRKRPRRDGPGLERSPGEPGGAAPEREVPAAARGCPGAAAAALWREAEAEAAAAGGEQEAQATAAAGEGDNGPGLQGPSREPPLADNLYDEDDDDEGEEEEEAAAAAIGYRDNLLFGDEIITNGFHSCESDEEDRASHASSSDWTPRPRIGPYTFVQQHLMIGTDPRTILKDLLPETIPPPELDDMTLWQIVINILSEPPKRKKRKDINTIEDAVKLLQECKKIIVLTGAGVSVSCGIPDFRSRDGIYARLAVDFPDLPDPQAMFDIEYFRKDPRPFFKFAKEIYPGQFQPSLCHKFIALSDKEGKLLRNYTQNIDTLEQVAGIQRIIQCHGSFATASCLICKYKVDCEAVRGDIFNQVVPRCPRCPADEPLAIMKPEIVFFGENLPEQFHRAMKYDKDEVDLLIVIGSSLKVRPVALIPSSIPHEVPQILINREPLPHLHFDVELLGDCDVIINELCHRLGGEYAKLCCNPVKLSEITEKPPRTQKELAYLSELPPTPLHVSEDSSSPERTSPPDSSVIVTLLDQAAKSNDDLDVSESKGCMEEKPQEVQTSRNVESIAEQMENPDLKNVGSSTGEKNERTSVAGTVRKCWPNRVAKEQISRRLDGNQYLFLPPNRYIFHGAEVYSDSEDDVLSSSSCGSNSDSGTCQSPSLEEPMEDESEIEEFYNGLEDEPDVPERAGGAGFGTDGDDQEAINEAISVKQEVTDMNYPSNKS
Briefly: Human SIRT1 deacetylase inhibition, HDAC fluorescent activity assay (BIOMOL AK-500). Type of data set: biochemical. The settings on record: for inhibition at 100 µM: 100 μM inhibitor, read-out: % inhibtn (100 μM) hSIRT1; for inhibition at 100 µM / IC50: 200 μM NAD+, 37° C., 60 min; for fold more potent than sirtinol (1) in inhibiting hSIRT1: relative to sirtinol 1. On the procedure:
(§1) Recombinant His-tagged yeast ySir2 and His-tagged hSIRT1 were purified and assayed for deacetylase activity using the HDAC fluorescent activity assay/drug discovery kit (AK-500, BIOMOL Research Laboratories).^55 This assay system allows detection of a fluorescent signal upon deacetylation of a histone substrate when treated with developer. Fluorescence was measured on a fluorometric reader (Wallac Victor III fluorescence plate reader Perkin Elmer) with excitation set at 360 nm and emission detection set at 450 nm. Reactions consisted of either 3 μg of ySir2 or 1 μg of SIRT1, incubated with 250 μM acetylated histone substrate, 1 mM dithiothreitol, and a range of inhibitor concentrations as described. Reactions with the yeast and human proteins were carried out at 30 and 37° C., respectively, for 60 min. Assays were performed in the presence of 200 μM NAD^+ and each of the inhibitors at 0, 20, 75, 100, 150, or 300 μM concentrations.

Another data set deals with T2, SIRT2 isoform 1 (Homo sapiens, UniProt Q8IXJ6).
T2 construct: His; made in house
T2 sequence (Q8IXJ6 1-389): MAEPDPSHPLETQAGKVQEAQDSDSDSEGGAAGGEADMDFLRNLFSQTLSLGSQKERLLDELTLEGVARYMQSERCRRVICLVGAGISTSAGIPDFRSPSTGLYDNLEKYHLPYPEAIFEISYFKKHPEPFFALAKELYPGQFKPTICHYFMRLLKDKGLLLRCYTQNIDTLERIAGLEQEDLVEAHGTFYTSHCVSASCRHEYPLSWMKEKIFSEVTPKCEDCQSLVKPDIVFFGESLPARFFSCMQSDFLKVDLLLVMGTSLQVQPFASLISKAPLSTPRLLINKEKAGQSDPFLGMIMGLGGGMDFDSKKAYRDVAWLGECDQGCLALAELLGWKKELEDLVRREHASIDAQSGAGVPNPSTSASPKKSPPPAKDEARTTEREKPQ
Briefly: SIRT2 deacetylase inhibition, HDAC fluorescent activity assay (BIOMOL AK-500). The format is biochemical. The following applies: for inhibition at 100 µM: read-out: SIRT2 % inhibition at 100 μM, 100 μM compound; for IC50: dose response curve; for fold more potent than 1 in inhibiting SIRT2: relative to sirtinol 1. On the procedure:
as §1
Recombinant His-tagged SIRT2 isoform 1 was purified and assayed for deacetylase activity using the HDAC fluorescent activity assay/drug discovery kit (AK-500, BIOMOL Research Laboratories) as described above. […] A dose response curve for determining the IC50 was also done.

Another data set deals with T3, yeast Sir2 (ySir2) (Saccharomyces cerevisiae, UniProt P06700).
T3 construct: His; made in house
In words: Yeast Sir2 deacetylase inhibition, HDAC fluorescent activity assay (BIOMOL AK-500). Type of data set: biochemical. The settings on record: for inhibition at 100 µM: 100 μM inhibitor, read-out: % inhibtn (100 μM) ySir2; for inhibition at 100 µM / IC50: 200 μM NAD+, 30° C., 60 min; for ySir2 inhibitory activity, in words: compared with sirtinol 1. Here is the method:
as §1
as §1, with “In Vitro Yeast Sir2 Enzyme Inhibition. Recombinant” for “Recombinant”, “Sir2p was” for “ySir2 and His-tagged hSIRT1 were”, “Laboratories).^42” for “Laboratories).^55”, “of” for “of either”, “ySir2” for “ySir2 or 1 μg of SIRT1,”

For data set [1], the system named is Sir2-mediated telomeric URA3 gene silencing. In words: Telomeric silencing assay (phenotypic screening, URA3 reporter, 5-FOA). The settings on record: relative to sirtinol 1, plates with 5-FOA, densitometric scanning at 16.7 μM. Type of data set: cell-based, yeast. Here is the method:
Wildtype (AYH2.45)^50 and sir2Δ (STY30)^50 strains were grown to exponential phase (0.5 OD/mL) in YPD medium and cells were spotted in 10-fold dilutions on SC medium containing 1 mg/mL 5-fluoroorotic acid (5-FOA).^51 When appropriate, cells were grown on plates containing 0.18% DMSO and the specified concentration of Sir2 inhibitor (5.6 and 16.7 μM). Cell growth was evaluated after 3-4 d at 30° C.
The yeast strain contained a URA3 reporter gene integrated into the sub-telomeric region of chromosome VII-L where it is silenced by Sir2.^50 In the presence of 5-fluoroorotic acid (5-FOA), loss of transcriptional silencing in this strain and the corresponding increase in URA3 expression is lethal (FIG. 2).^51
A semi-quantitative assay of the spots on the plates treated with 5-FOA and the Sir2 inhibitors at 16.7 μM concentration was performed by densitometric scanning of the plates.

T3 sequence (P06700 whole entry): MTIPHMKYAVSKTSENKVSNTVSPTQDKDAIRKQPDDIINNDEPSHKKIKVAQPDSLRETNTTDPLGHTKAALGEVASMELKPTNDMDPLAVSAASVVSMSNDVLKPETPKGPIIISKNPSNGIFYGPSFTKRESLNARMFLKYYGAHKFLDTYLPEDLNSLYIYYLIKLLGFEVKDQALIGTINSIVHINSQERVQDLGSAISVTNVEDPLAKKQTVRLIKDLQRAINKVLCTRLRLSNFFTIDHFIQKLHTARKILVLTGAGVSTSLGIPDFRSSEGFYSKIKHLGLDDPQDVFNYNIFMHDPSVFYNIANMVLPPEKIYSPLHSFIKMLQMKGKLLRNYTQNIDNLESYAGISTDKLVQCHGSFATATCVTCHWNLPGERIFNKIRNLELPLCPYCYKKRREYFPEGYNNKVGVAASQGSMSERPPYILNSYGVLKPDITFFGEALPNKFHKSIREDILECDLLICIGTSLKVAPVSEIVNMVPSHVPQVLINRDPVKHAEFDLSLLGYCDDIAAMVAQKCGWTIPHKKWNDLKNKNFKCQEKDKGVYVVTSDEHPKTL

Consider `CC(NC(=O)c1ccccc1/N=C/c1c(O)ccc2ccccc12)c1ccccc1` (racemic) [Compound 1, sirtinol, reference compound], for which the inhibition at 100 µM on human SIRT1 (hSIRT1) stood at 44.5%; at SIRT2 isoform 1, 71%; at yeast Sir2 (ySir2), 65.6%.

With `CC(NC(=O)c1ccccc1/N=C/c1cccc2ccccc12)c1ccccc1` (stereo not shown) [Compound 2, 2-[(1-naphthalenylmethylene)amino]-N-(1-phenylethyl)benzamide], the melting point was in the range of 101 to 103 °C. Besides, on human SIRT1 (hSIRT1), the inhibition at 100 µM was determined as 33%. At yeast Sir2 (ySir2), the inhibition at 100 µM was 10%.

Take `CCOC(=O)c1ccccc1/N=C/c1c(O)ccc2ccccc12` [Compound 3]: the results for the inhibition at 100 µM at human SIRT1 (hSIRT1) and on yeast Sir2 (ySir2) were 9% and 20%, respectively. Also, at yeast Sir2 (ySir2) (relative to sirtinol 1), the “fold less potent than sirtinol (1) in inhibiting ySir2” value is recorded as 3 fold.

As for `O=C(O)c1ccccc1/N=C/c1c(O)ccc2ccccc12` [Compound 4], the melting point was in the range of 180 to 182 °C. Further, the inhibition at 100 µM at human SIRT1 (hSIRT1) was determined as 26%. Further, on yeast Sir2 (ySir2), the inhibition at 100 µM worked out at 5%.

`NC(=O)c1ccccc1/N=C/c1c(O)ccc2ccccc12` [Compound 5] yielded a melting point of 238 to 240 °C. In addition, at human SIRT1 (hSIRT1), the “hSIRT1 inhibitory activity, in words” value is “totally inactive” and the inhibition at 100 µM lay within 0 to 5%. For the same compound, on yeast Sir2 (ySir2), the inhibition at 100 µM is 0 to 5% and the “ySir2 inhibitory activity, in words” value is “totally inactive; also recorded: total loss of Sir2 inhibitory activity”.

Compound `N#Cc1ccccc1/N=C/c1c(O)ccc2ccccc12` [Compound 6] displayed a melting point of 139 to 141 °C. Moreover, the inhibition at 100 µM on human SIRT1 (hSIRT1) was 20%. For the same compound, the inhibition at 100 µM on yeast Sir2 (ySir2) is 15%. In addition, at yeast Sir2 (ySir2) (relative to sirtinol 1), the “fold less potent than sirtinol (1) in inhibiting ySir2” value was determined as 4 fold.

`CC(NC(=O)c1cccc(/N=C/c2c(O)ccc3ccccc23)c1)c1ccccc1` (stereo not shown) [Compound 7, 3-[(2-hydroxy-1-naphthalenylmethylene)amino]-N-(1-phenylethyl)benzamide]: the “Sir2 inhibitory potency in phenotypic screening, in words” value (from here on “Sir2 inhibitory potency”) in data set [1] is “more potent inhibitors than 1; also recorded: more potent than sirtinol; also recorded: same potent Sir2 inhibitory as 1”. Also, the “Sir2 inhibitory potency” value in data set [1] (listed as meta-sirtinol) is on record as “more potent Sir2 inhibitory activity than sirtinol”. At human SIRT1 (hSIRT1), the inhibition at 100 µM turned out to be 63%, the IC50 was 59 ± 2 µM and the “fold more potent than sirtinol (1) in inhibiting hSIRT1” value amounted to 2.2 fold. Also, at human SIRT1 (hSIRT1) (listed as meta-sirtinol), the “fold more potent than sirtinol (1) in inhibiting hSIRT1” value amounted to 2 fold. In addition, on SIRT2 isoform 1, half-maximal inhibition (IC50) was put at 35.7 µM, the inhibition at 100 µM turned out to be 79.2% and the “fold more potent than 1 in inhibiting SIRT2” value was found to be 1.6 fold. Further, at yeast Sir2 (ySir2), the inhibition at 100 µM is 53.9%; it took 72 ± 3 µM to reach half-maximal inhibition (IC50); the “ySir2 inhibitory activity, in words” value is recorded as “IC50 values similar to that of 1; also recorded: IC50 values similar to those of 1”. For the same compound, the “fold less potent than sirtinol (1) in inhibiting ySir2” value on yeast Sir2 (ySir2) (relative to sirtinol 1) was 1.5 fold.

Take `CC(NC(=O)c1ccc(/N=C/c2c(O)ccc3ccccc23)cc1)c1ccccc1` (stereo not shown) [Compound 8, 4-[(2-hydroxy-1-naphthalenylmethylene)amino]-N-(1-phenylethyl)benzamide]: in data set [1] (listed as para-sirtinol), the “Sir2 inhibitory potency” value is on record as “more potent Sir2 inhibitory activity than sirtinol”. On human SIRT1 (hSIRT1), the inhibition at 100 µM was 82.6%, the half-maximal inhibitory concentration (IC50) is 13 µM and the “fold more potent than sirtinol (1) in inhibiting hSIRT1” value stood at 10 fold. Further, the “fold more potent than sirtinol (1) in inhibiting hSIRT1” value on human SIRT1 (hSIRT1) (listed as para-sirtinol) is 8 fold. The “SIRT2 inhibitory potency, in words” value on SIRT2 isoform 1 (among compounds 1, 7-10) is “most potent”. Further, at SIRT2 isoform 1, the IC50 is 25.9 µM, the inhibition at 100 µM was 80.2% and the “fold more potent than 1 in inhibiting SIRT2” value was found to be 2.2 fold. Besides, at yeast Sir2 (ySir2), the inhibition at 100 µM was found to be 59.8%; the midpoint of inhibition, the IC50, lay at 33 ± 1 µM; the “ySir2 inhibitory activity, in words” value is on record as “IC50 values similar to that of 1; also recorded: IC50 values similar to those of 1”. The “fold more potent than sirtinol (1) in inhibiting ySir2” value at yeast Sir2 (ySir2) (relative to sirtinol 1) was 1.5 fold.

Turning to `C[C@@H](NC(=O)c1ccccc1/N=C/c1c(O)ccc2ccccc12)c1ccccc1` [Compound 9, (R)-sirtinol], the values for the inhibition at 100 µM on human SIRT1 (hSIRT1), on SIRT2 isoform 1 and at yeast Sir2 (ySir2) were 61.8%, 72.2% and 55.5%, respectively. Moreover, the “ySir2 inhibitory activity, in words” value at yeast Sir2 (ySir2) is given as “IC50 values similar to that of sirtinol 1”.

`C[C@H](NC(=O)c1ccccc1/N=C/c1c(O)ccc2ccccc12)c1ccccc1` [Compound 10, (S)-2-[(2-hydroxy-1-naphthalenylmethylene)amino]-N-(1-phenylethyl)benzamide]: the inhibition at 100 µM was determined as 60.2% at human SIRT1 (hSIRT1), 73.5% on SIRT2 isoform 1 and 57% at yeast Sir2 (ySir2). In addition, the “ySir2 inhibitory activity, in words” value on yeast Sir2 (ySir2) was “IC50 values similar to that of sirtinol 1”.

What is called melting point is the temperature, or range, at which the solid turns liquid. In general, IC50 refers to the concentration that gives 50% inhibition. Lower therefore signals inhibition by little substance.
